Broadly, the IC50 is the midpoint of a concentration-inhibition curve. A lower IC50 goes with greater potency.

The values that follow come from ChEMBL document CHEMBL4017547, “Influences of Histidine-1 and Azaphenylalanine-4 on the Affinity, Anti-inflammatory, and Antiangiogenic Activities of Azapeptide Cluster of Differentiation 36 Receptor Modulators” (J Med Chem, 2017).

Molecules are shown by their SMILES. Calls of active or inactive are those of the source. The calls are words filed in the database; no cut-off is given here. Starred links: 1 amine or outer side, 2 acyl side, 3 side chain; linkers in the order of their positions; H or OH if unused. Non-standard residues stand in square brackets, D forms with d. Residues, ends and D or L forms follow the SMILES beside them. dTrp(2-Me) = Cc1[nH]c2ccccc2c1C[C@@H](N)C(=O)O; azaTyr = O=C(N(Cc1ccc(O)cc1)N[*:1])[*:2]; azaPhe = O=C(N(Cc1ccccc1)N[*:1])[*:2]

The species named for one series is Mus musculus. Nature of the series: Anti-angiogenic activity in mouse sclera/choroid/retinal pigment epithelium complex assessed as reduction in microvascular sprouting at 1 uM after 24 hrs by microscopic analysis. In kind it is functional.
The target of series [1] is Platelet glycoprotein 4 (Rattus norvegicus) (UniProt Q07969). Nature of the series: Inhibition of photoactivatable [125I]-Tyr-Bpa-Ala-hexarelin binding to CD36 in Sprague-Dawley rat heart membranes after 60 mins by SDS-PAGE analysis relative to H-His-D-Trp-Ala-aza(3-hydroxy)Phe-D-Phe-Lys-NH2. In kind it is cell membranes. To be noted: Membrane.
Sequence of Platelet glycoprotein 4 (Rattus norvegicus) (Q07969 whole entry): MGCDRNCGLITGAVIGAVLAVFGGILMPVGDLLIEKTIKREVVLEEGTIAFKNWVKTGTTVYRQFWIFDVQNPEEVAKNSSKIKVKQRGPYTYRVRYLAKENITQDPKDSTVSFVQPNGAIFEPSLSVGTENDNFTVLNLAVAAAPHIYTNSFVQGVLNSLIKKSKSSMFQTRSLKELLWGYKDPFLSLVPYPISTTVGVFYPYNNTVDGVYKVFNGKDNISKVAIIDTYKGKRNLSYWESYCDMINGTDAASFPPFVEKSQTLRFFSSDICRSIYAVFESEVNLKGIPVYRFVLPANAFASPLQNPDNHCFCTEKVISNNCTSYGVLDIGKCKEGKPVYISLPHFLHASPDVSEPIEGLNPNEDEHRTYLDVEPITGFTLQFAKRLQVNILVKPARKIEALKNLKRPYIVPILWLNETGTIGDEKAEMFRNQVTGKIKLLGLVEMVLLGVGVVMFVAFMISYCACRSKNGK
The target in another series is Platelet glycoprotein 4 (Rattus norvegicus, UniProt Q07969). The series is described as follows: Inhibition of photoactivatable [125I]-Tyr-Bpa-Ala-hexarelin binding to CD36 in Sprague-Dawley rat heart membranes after 60 mins by SDS-PAGE analysis. In kind it is cell membranes, Membrane.
Sequence of Platelet glycoprotein 4 (Q07969 whole entry): as above
Series [2] has as its target Platelet glycoprotein 4 (Mus musculus) (UniProt Q08857). The series is described as follows: Modulation of CD36 in mouse […] cells assessed as inhibition of R-FSL1-induced NO over production at 1 uM preincubated for 1 hr followed by overnight R-FSL1 stimulation by DAN-fluorescence assay relative to control. The format is cell-based.
Series [3] has the same target. Nature of the series: Modulation of CD36 in mouse J774A.1 cells assessed as inhibition of R-FSL1-induced NO over production at 1 uM preincubated for 1 hr followed by overnight R-FSL1 stimulation by DAN-fluorescence assay relative to control. The format is cell-based.
Series [4] is described as follows: Pro-angiogenic activity in mouse sclera/choroid/retinal pigment epithelium complex assessed as increase in microvascular sprouting at 1 uM after 24 hrs by microscopic analysis. In kind it is ADME.

Sequence of Platelet glycoprotein 4 (Mus musculus) (Q08857 whole entry): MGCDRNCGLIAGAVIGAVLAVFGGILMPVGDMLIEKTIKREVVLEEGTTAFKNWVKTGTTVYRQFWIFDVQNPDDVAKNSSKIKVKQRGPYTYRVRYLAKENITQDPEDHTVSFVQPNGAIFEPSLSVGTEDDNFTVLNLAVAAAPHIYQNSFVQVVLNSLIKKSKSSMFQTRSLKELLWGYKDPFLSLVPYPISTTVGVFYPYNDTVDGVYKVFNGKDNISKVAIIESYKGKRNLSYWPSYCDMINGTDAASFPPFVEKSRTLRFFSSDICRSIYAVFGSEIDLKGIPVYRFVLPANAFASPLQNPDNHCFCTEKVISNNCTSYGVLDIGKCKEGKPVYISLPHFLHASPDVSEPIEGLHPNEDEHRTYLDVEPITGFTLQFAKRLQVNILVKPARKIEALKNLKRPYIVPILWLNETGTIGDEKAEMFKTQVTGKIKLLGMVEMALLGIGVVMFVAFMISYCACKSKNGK

As for `C[C@H](N)C(=O)N[C@H](Cc1c[nH]c2ccccc12)C(=O)N[C@@H](C)C(=O)NN(Cc1ccc(O)cc1)C(=O)N[C@H](Cc1ccccc1)C(=O)N[C@@H](CCCCN)C(N)=O` (H-A[dW]A[azaTyr][dF]K-NH2), the result in the series listed under Mus musculus was inactive. The compound also returned a fold change (FC) in series [1] of 3.1. Further, the half-maximal inhibitory concentration (IC50) on Platelet glycoprotein 4 turned out to be 9.19 µM.

Consider `COc1ccc(CN(NC(=O)[C@H](C)NC(=O)[C@@H](Cc2c[nH]c3ccccc23)NC(=O)[C@@H](N)Cc2cnc[nH]2)C(=O)N[C@H](Cc2ccccc2)C(=O)N[C@@H](CCCCN)C(N)=O)cc1`, for which, in the series filed under Mus musculus, the outcome was Active. Further, the inhibition entry in series [2] and in series [3] was “Active” in each case. In series [1], the fold change (FC) worked out at 3.7. The compound further had an IC50 at Platelet glycoprotein 4 of 7.51 µM.

In the case of `COc1cc(Cl)cc(Cl)c1CN(NC(=O)[C@H](C)NC(=O)[C@@H](Cc1c[nH]c2ccccc12)NC(=O)[C@@H](N)Cc1cnc[nH]1)C(=O)N[C@H](Cc1ccccc1)C(=O)N[C@@H](CCCCN)C(N)=O`, the inhibition result in series [2] and in series [3] was “inactive” in each case.

In the case of `C[C@H](NC(=O)[C@@H](Cc1c[nH]c2ccccc12)NC(=O)[C@@H](N)Cc1cnc[nH]1)C(=O)NN(Cc1cccc(O)c1)C(=O)N[C@H](Cc1ccccc1)C(=O)N[C@@H](CCCCN)C(N)=O`, the result in the series listed under Mus musculus was inactive. Further, the inhibition entry in series [2] and in series [3] was “inactive” each time. The IC50 on Platelet glycoprotein 4 came to 28.2 µM.

As for `CC(C)Oc1ccc(CN(NC(=O)[C@H](C)NC(=O)[C@@H](Cc2c[nH]c3ccccc23)NC(=O)[C@@H](N)Cc2cnc[nH]2)C(=O)N[C@H](Cc2ccccc2)C(=O)N[C@@H](CCCCN)C(N)=O)cc1`, the inhibition result in series [2] and in series [3] was “inactive” in each case.

On to `C[C@H](NC(=O)[C@@H](Cc1c[nH]c2ccccc12)NC(=O)[C@@H](N)Cc1cnc[nH]1)C(=O)NN(Cc1ccc(I)cc1)C(=O)N[C@H](Cc1ccccc1)C(=O)N[C@@H](CCCCN)C(N)=O`, for which the inhibition result in series [2] and in series [3] was “inactive” throughout.

As to `C[C@H](NC(=O)[C@@H](Cc1c[nH]c2ccccc12)NC(=O)[C@@H](N)Cc1cnc[nH]1)C(=O)NN(Cc1ccccc1)C(=O)N[C@H](Cc1ccccc1)C(=O)N[C@@H](CCCCN)C(N)=O` (H-H[dW]A[azaPhe][dF]K-NH2), in the series filed under Mus musculus, the outcome was inactive. Besides, the inhibition result in series [2] and in series [3] was “inactive” each time. In series [1], the fold change (FC) is 2.8. Further, at Platelet glycoprotein 4, the IC50 turned out to be 10.1 µM.

In the case of `CCCOc1ccc(CN(NC(=O)[C@H](C)NC(=O)[C@@H](Cc2c[nH]c3ccccc23)NC(=O)[C@@H](N)Cc2cnc[nH]2)C(=O)N[C@H](Cc2ccccc2)C(=O)N[C@@H](CCCCN)C(N)=O)cc1`, the inhibition entry in series [2] and in series [3] was “Active” in each case. The fold change (FC) in series [1] is 17.1. The compound further came in with an IC50 on Platelet glycoprotein 4 of 1.65 µM. Also, the Activity entry in series [4] is “Toxic”.

In the case of `C[C@H](N)C(=O)N[C@H](Cc1c[nH]c2ccccc12)C(=O)N[C@@H](C)C(=O)NN(Cc1ccc(C(F)(F)F)cc1)C(=O)N[C@H](Cc1ccccc1)C(=O)N[C@@H](CCCCN)C(N)=O`, the inhibition entry in series [2] and in series [3] was “inactive” in each case.

On to `COc1cc(Cl)c(CN(NC(=O)[C@H](C)NC(=O)[C@@H](Cc2c[nH]c3ccccc23)NC(=O)[C@@H](N)Cc2cnc[nH]2)C(=O)N[C@H](Cc2ccccc2)C(=O)N[C@@H](CCCCN)C(N)=O)c(Cl)c1`, for which the inhibition entry in series [2] and in series [3] was “inactive” throughout.

Regarding `C[C@H](NC(=O)[C@@H](Cc1c[nH]c2ccccc12)NC(=O)[C@@H](N)Cc1cnc[nH]1)C(=O)NN(Cc1c(F)cc(F)cc1F)C(=O)N[C@H](Cc1ccccc1)C(=O)N[C@@H](CCCCN)C(N)=O`, the inhibition result in series [2] and in series [3] was “inactive” throughout.

With `C[C@H](NC(=O)[C@@H](Cc1c[nH]c2ccccc12)NC(=O)[C@@H](N)Cc1cnc[nH]1)C(=O)NN(Cc1ccc(Br)cc1)C(=O)N[C@H](Cc1ccccc1)C(=O)N[C@@H](CCCCN)C(N)=O`, the outcome in the series filed under Mus musculus was Active. Further, the inhibition result in series [2] and in series [3] was “Active” throughout. Moreover, the fold change (FC) in series [1] amounted to 7.8. At Platelet glycoprotein 4, this compound returned a half-maximal inhibitory concentration (IC50) of 3.6 µM.

Take `C[C@H](NC(=O)[C@@H](Cc1c[nH]c2ccccc12)NC(=O)[C@@H](N)Cc1cnc[nH]1)C(=O)NN(Cc1ccc(O)cc1)C(=O)N[C@H](Cc1ccccc1)C(=O)N[C@@H](CCCCN)C(N)=O` (H-H[dW]A[azaTyr][dF]K-NH2): the outcome in the series listed under Mus musculus was Active. The inhibition result in series [2] and in series [3] was “inactive” each time. In series [1], this compound gave a fold change (FC) of 14.8. The compound also displayed a concentration for half-maximal inhibition (IC50) at Platelet glycoprotein 4 of 1.9 µM.

In the case of `C[C@H](N)C(=O)N[C@H](Cc1c[nH]c2ccccc12)C(=O)N[C@@H](C)C(=O)NN(Cc1ccccc1)C(=O)N[C@H](Cc1ccccc1)C(=O)N[C@@H](CCCCN)C(N)=O` (H-A[dW]A[azaPhe][dF]K-NH2), in the series filed under Mus musculus, the result was inactive. The inhibition entry in series [2] and in series [3] was “Active” throughout. This compound also displayed a fold change (FC) in series [1] of 1.5. Further, the IC50 at Platelet glycoprotein 4 came out at 19 µM.

Regarding `C[C@H](N)C(=O)N[C@H](Cc1c[nH]c2ccccc12)C(=O)N[C@@H](C)C(=O)NN(Cc1ccc(Br)cc1)C(=O)N[C@H](Cc1ccccc1)C(=O)N[C@@H](CCCCN)C(N)=O`, the outcome in the series listed under Mus musculus was inactive. In series [1], this compound came in with a fold change (FC) of 2.2. Moreover, the concentration for half-maximal inhibition (IC50) at Platelet glycoprotein 4 was 12.5 µM.

With `C[C@H](N)C(=O)N[C@H](Cc1c[nH]c2ccccc12)C(=O)N[C@@H](C)C(=O)NN(Cc1ccc(I)cc1)C(=O)N[C@H](Cc1ccccc1)C(=O)N[C@@H](CCCCN)C(N)=O`, the inhibition entry in series [2] and in series [3] was “inactive” in each case.

As to `C[C@H](N)C(=O)N[C@H](Cc1c[nH]c2ccccc12)C(=O)N[C@@H](C)C(=O)NN(Cc1ccc([N+](=O)[O-])cc1)C(=O)N[C@H](Cc1ccccc1)C(=O)N[C@@H](CCCCN)C(N)=O`, the inhibition entry in series [2] and in series [3] was “Active” in each case.

Take `C[C@H](NC(=O)[C@@H](Cc1c[nH]c2ccccc12)NC(=O)[C@@H](N)Cc1cnc[nH]1)C(=O)NN(Cc1ccc(F)cc1)C(=O)N[C@H](Cc1ccccc1)C(=O)N[C@@H](CCCCN)C(N)=O`: in the series listed under Mus musculus, the outcome was Active. Besides, the inhibition entry in series [2] and in series [3] was “Active” throughout. The compound also showed a fold change (FC) in series [1] of 4.6. The compound also yielded an IC50 on Platelet glycoprotein 4 of 6.06 µM.

In the case of `C[C@H](NC(=O)[C@@H](Cc1c[nH]c2ccccc12)NC(=O)[C@@H](N)Cc1cnc[nH]1)C(=O)NN(Cc1c[nH]nn1)C(=O)N[C@H](Cc1ccccc1)C(=O)N[C@@H](CCCCN)C(N)=O`, the inhibition result in series [2] and in series [3] was “inactive” in each case.

In the case of `C[C@H](NC(=O)[C@@H](Cc1c[nH]c2ccccc12)NC(=O)[C@@H](N)Cc1cnc[nH]1)C(=O)NN(Cc1ccc(C(F)(F)F)cc1)C(=O)N[C@H](Cc1ccccc1)C(=O)N[C@@H](CCCCN)C(N)=O`, the inhibition entry in series [2] and in series [3] was “inactive” in each case.

`C[C@H](NC(=O)[C@@H](Cc1c[nH]c2ccccc12)NC(=O)[C@@H](N)Cc1cnc[nH]1)C(=O)NN(Cc1ccc([N+](=O)[O-])cc1)C(=O)N[C@H](Cc1ccccc1)C(=O)N[C@@H](CCCCN)C(N)=O`: the inhibition entry in series [2] and in series [3] was “inactive” each time.

In the case of `C[C@H](NC(=O)[C@@H](Cc1c[nH]c2ccccc12)NC(=O)[C@@H](N)Cc1cnc[nH]1)C(=O)NN(CCCCCN)C(=O)N[C@H](Cc1ccccc1)C(=O)N[C@@H](CCCCN)C(N)=O`, the inhibition entry in series [2] and in series [3] was “inactive” throughout.

With `C[C@H](N)C(=O)N[C@H](Cc1c[nH]c2ccccc12)C(=O)N[C@@H](C)C(=O)NN(Cc1ccc(Cl)cc1)C(=O)N[C@H](Cc1ccccc1)C(=O)N[C@@H](CCCCN)C(N)=O`, in the series filed under Mus musculus, the result was Active. The compound also came in with a fold change (FC) in series [1] of 5.7. This compound also showed an IC50 on Platelet glycoprotein 4 of 4.94 µM.

For `Cc1cc(F)cc(C)c1CN(NC(=O)[C@H](C)NC(=O)[C@@H](Cc1c[nH]c2ccccc12)NC(=O)[C@@H](N)Cc1cnc[nH]1)C(=O)N[C@H](Cc1ccccc1)C(=O)N[C@@H](CCCCN)C(N)=O`, the result in the series filed under Mus musculus was inactive. The inhibition entry in series [2] and in series [3] was “Active” throughout. In addition, in series [1], the fold change (FC) was determined as 5. For the same compound, at Platelet glycoprotein 4, the IC50 came to 5.58 µM.

Regarding `Cc1cccc(C)c1CN(NC(=O)[C@H](C)NC(=O)[C@@H](Cc1c[nH]c2ccccc12)NC(=O)[C@@H](N)Cc1cnc[nH]1)C(=O)N[C@H](Cc1ccccc1)C(=O)N[C@@H](CCCCN)C(N)=O`, the outcome in the series listed under Mus musculus was inactive. Moreover, the inhibition result in series [2] and in series [3] was “Active” in each case. The fold change (FC) in series [1] was 5.1. This compound also gave an IC50 at Platelet glycoprotein 4 of 5.51 µM.

Regarding `Cc1[nH]c2ccccc2c1C[C@@H](NC(=O)[C@@H](N)Cc1c[nH]cn1)C(=O)N[C@@H](C)C(=O)N[C@@H](Cc1c[nH]c2ccccc12)C(=O)N[C@H](Cc1ccccc1)C(=O)N[C@@H](CCCCN)C(N)=O` (H-H[dTrp(2-Me)]AW[dF]K-NH2), the fold change (FC) in series [1] is 18.1.

`COc1ccc(CN(NC(=O)[C@H](C)NC(=O)[C@@H](Cc2c[nH]c3ccccc23)NC(=O)[C@H](C)N)C(=O)N[C@H](Cc2ccccc2)C(=O)N[C@@H](CCCCN)C(N)=O)cc1`: the inhibition result in series [2] and in series [3] was “Active” each time.
